Biological target: T1, human calcium-sensing receptor (CaSR) (Homo sapiens, UniProt P41180)
T1 construct: expressed in transfected cells
T1 sequence (P41180 20-1078): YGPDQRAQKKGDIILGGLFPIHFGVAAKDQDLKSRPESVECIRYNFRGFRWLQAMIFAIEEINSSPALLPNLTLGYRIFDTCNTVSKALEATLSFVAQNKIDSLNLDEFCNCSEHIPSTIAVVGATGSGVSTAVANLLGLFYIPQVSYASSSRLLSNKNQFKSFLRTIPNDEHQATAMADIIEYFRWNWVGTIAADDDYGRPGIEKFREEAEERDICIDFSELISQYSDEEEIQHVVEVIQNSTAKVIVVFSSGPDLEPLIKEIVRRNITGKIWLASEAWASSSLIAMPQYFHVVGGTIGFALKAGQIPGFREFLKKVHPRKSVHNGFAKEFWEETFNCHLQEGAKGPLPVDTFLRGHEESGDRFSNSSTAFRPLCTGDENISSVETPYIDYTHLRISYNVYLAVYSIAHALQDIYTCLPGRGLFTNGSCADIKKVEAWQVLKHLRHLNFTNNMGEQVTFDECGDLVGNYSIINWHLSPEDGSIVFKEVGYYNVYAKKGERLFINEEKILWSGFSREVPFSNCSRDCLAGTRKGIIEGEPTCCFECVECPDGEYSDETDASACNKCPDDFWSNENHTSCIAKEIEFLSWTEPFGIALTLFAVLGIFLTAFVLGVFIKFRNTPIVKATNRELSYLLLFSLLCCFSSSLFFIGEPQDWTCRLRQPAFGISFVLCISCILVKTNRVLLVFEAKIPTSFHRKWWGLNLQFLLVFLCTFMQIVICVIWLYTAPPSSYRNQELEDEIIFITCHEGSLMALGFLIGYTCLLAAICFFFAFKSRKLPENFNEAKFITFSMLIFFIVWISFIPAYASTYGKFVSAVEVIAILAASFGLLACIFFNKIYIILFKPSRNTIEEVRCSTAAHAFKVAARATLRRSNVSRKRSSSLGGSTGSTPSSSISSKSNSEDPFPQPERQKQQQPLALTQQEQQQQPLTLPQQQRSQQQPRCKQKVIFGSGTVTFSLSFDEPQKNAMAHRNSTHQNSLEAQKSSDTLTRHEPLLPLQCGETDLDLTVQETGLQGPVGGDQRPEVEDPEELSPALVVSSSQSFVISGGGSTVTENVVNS
Assay: intracellular Ca assay, CaSR antagonist activity in HEK293/hCaSR cells
Format: cell-based
Conditions: Fura2-AM, inhibition of response to calcium chloride ligand solution, read-out: IC50 values according to the intracellular Ca assay (CaSR antagonist activity)
Method in brief: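 HEK293/hCaSR cells were loaded with Fura2-AM and pre-incubated with compound for 160 s at 37° C in HEPES buffer (pH 7.4, 0.8 mM CaCl2), then challenged with calcium ligand solution. Read-out was the peak 340/380 nm fluorescence ratio; inhibition is relative to no-compound (0%) and no-calcium-ligand (100%) controls.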

| IC50 | Compound |
| --- | --- |
| ≤ 300 nM | CCc1cc(-c2c(F)cccc2CCC(=O)O)ccc1S(=O)(=O)N(C)C[C@H](O)CNC(C)(C)CCCc1ccccc1 [Exp. 5-74, (R)-3-(3′-ethyl-6-fluoro-4′-(N-(2-hydroxy-3-(2-methyl-5-phenylpentan-2-ylamino)propyl)-N-methylsulfamoyl)biphenyl-2-yl)propionic acid] |
| ≤ 300 nM | CCc1cc(-c2ccc(CCCC(=O)O)cc2)ccc1S(=O)(=O)N(C)C[C@H](O)CNC(C)(C)CCCc1ccccc1 [Exp. 5-77, (R)-4-(3′-ethyl-4′-(N-(2-hydroxy-3-(2-methyl-5-phenylpentan-2-ylamino)propyl)-N-methylsulfamoyl)biphenyl-4-yl)butanoic acid] |
| ≤ 300 nM | Cc1cc(CCC(=O)O)sc1-c1cc(C(F)(F)F)cc(S(=O)(=O)N(C)C[C@H](O)CNC(C)(C)CCCc2ccccc2)c1 [Exp. 6-1, (R)-3-(5-(3-(N-(2-hydroxy-3-(2-methyl-5-phenylpentan-2-ylamino)propyl)-N-methylsulfamoyl)-5-(trifluoromethyl)phenyl)-4-methylthiophen-2-yl)propionic acid] |
| ≤ 300 nM | CN(C[C@H](O)CNC(C)(C)CCCc1ccccc1)S(=O)(=O)c1c(Cl)cc(-c2cccc(CCC(=O)O)c2)cc1Cl [Exp. 6-6, (R)-3-(3′,5′-dichloro-4′-(N-(2-hydroxy-3-(2-methyl-5-phenylpentan-2-ylamino)propyl)-N-methylsulfamoyl)biphenyl-3-yl)propionic acid] |
| ≤ 300 nM | CN(C[C@H](O)CNC(C)(C)CC1Cc2ccccc2C1)S(=O)(=O)c1cc(-c2ccc(CCC(=O)O)s2)cc(C(F)(F)F)c1 [Exp. 8-1, (R)-3-(5-(3-(N-(3-(1-(2,3-dihydro-1H-inden-2-yl)-2-methylpropan-2-ylamino)-2-hydroxypropyl)-N-methylsulfamoyl)-5-(trifluoromethyl)phenyl)thiophen-2-yl)propionic acid] |
| ≤ 300 nM | CCc1cc(-c2c(F)cccc2CCC(=O)O)ccc1S(=O)(=O)N(C)C[C@H](O)CNC(C)(C)CCCc1ccsc1 [Exp. 8-24, (R)-3-(3′-ethyl-6-fluoro-4′-(N-(2-hydroxy-3-(2-methyl-5-(thiophen-3-yl)pentan-2-ylamino)propyl)-N-methylsulfamoyl)biphenyl-2-yl)propionic acid] |
| ≤ 300 nM | CN(C[C@H](O)CNC(C)(C)CCCc1ccccc1)S(=O)(=O)c1cc(-c2cccc(CCC(=O)O)c2)cc(C(F)(F)F)c1 [Exp. 9-55, (R)-3-(3′-(N-(2-hydroxy-3-(2-methyl-5-phenylpentan-2-ylamino)propyl)-N-methylsulfamoyl)-5′-(trifluoromethyl)biphenyl-3-yl)propionic acid] |
| ≤ 300 nM | CN(C[C@H](O)CNC(C)(C)CCCc1ccccc1)S(=O)(=O)c1cc(-c2ccc(CCC(=O)O)cc2)cc(C(F)(F)F)c1 [Exp. 9-56, (R)-3-(3′-(N-(2-hydroxy-3-(2-methyl-5-phenylpentan-2-ylamino)propyl)-N-methylsulfamoyl)-5′-(trifluoromethyl)biphenyl-4-yl)propionic acid] |
| ≤ 300 nM | CN(C[C@H](O)CNC(C)(C)CCCc1ccsc1)S(=O)(=O)c1cc(-c2cccc(CCC(=O)O)c2)cc(C(F)(F)F)c1 [Exp. 9-73, (R)-3-(3′-(N-(2-hydroxy-3-(2-methyl-5-(thiophen-3-yl)pentan-2-ylamino)propyl)-N-methylsulfamoyl)-5′-(trifluoromethyl)biphenyl-3-yl)propionic acid] |
| ≤ 300 nM | CN(C[C@H](O)CNC(C)(C)CCCc1ccsc1)S(=O)(=O)c1cc(-c2ccc(CCC(=O)O)cc2)cc(C(F)(F)F)c1 [Exp. 9-75, (R)-3-(3′-(N-(2-hydroxy-3-(2-methyl-5-(thiophen-3-yl)pentan-2-ylamino)propyl)-N-methylsulfamoyl)-5′-(trifluoromethyl)biphenyl-4-yl)propionic acid] |
| ≤ 300 nM | CCc1cc(-c2ccc(CCC(=O)O)cc2)ccc1S(=O)(=O)N(C)C[C@H](O)CNC(C)(C)CCCc1ccccc1F [Exp. 9-89, (R)-3-(3′-ethyl-4′-(N-(3-(5-(2-fluorophenyl)-2-methylpentan-2-ylamino)-2-hydroxypropyl)-N-methylsulfamoyl)biphenyl-4-yl)propionic acid] |

Reference: patent US8039514B2, “Sulfonamide compounds and use thereof” (Asahi Kasei Pharma Corporation, priority 2008, dated 2011)
